Consider 56 compounds from PubChem BioAssay AID743396 (Broad Institute, 2014).

Active and inactive are the calls of the source.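 Rule for the calls: active = fitted curve reaches a 40% rise in fluorescent cells at or below the top valid dose; inactive = opposite-direction effect, or the rest.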

In one test the test system is mTEFS fibroblasts autofluorescence, GFP-channel imaging, 3 days. The experiment in a line: compound fluorescence in GFP channel, mTEFS cells – imaging, mTEFS fibroblasts, cherry-pick, artefact control for X-chromosome reactivation project, dose response (AID 743396).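 For % fluorescent cells increase: raw share of Hoechst-counted cells scored GFP positive without control normalization.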 As to conditions: cells pretreated with 5-aza-dC.
With `O=[N+]([O-])c1ccc(C2=NN(c3ccccc3)C(c3ccco3)C2)cc1` (stereo unspecified), the AC40 is 2.59 µM.

For `O=[N+]([O-])c1ccc(N/N=C/c2sc(N3CCOCC3)nc2-c2ccccc2)c(S(=O)(=O)Nc2ccc(Cl)cc2)c1`, the AC40 is > 6.8 µM (inactive).

With `Cc1oc2ccc(NS(=O)(=O)c3cccc4cccnc34)cc2c1C(=O)OC(C)C`, the AC40 is 4.77 µM.

For the compound `CC(=O)Nc1cc2c3c(cccc3c1)-c1ccccc1-2`, the AC40 was 2.19 µM.

As for `CCN(CC)C1=CC2=CC(=C(C#N)C#N)CCC2CC1` (stereo unspecified), the AC40 is > 19.5 µM (inactive).

As for `CC(=O)Oc1cccc(N2C(=O)c3cccc4c([N+](=O)[O-])ccc(c34)C2=O)c1`, the AC40 is > 19.5 µM (inactive).

Take `O=c1[nH]c(=O)n([C@H]2C[C@H](O)[C@@H](CO)O2)cc1C(F)(F)F`: the AC40 was > 19.5 µM (inactive).

On to `CC(=NNc1nc2ccccc2o1)c1cc2ccccc2cn1`, for which the AC40 is 8.99 µM.

Turning to `Nc1c(C(=O)c2ccccc2)sc2nsc(SCCN3CCCC3)c12`, the AC40 was 10.5 µM.

For the compound `Cc1ccccc1-c1ccc(C2[C@@H]3CN(Cc4cocn4)C[C@H]2N3)cc1` (stereo partly specified), the AC40 is > 2.35 µM (inactive).

As for `O=C(NC1CCCC1)c1cccc2c1C(=O)c1ccc(/C=C/c3ccccc3)cc1S2(=O)=O`, the AC40 was > 19.5 µM (inactive).

`N#Cc1ccccc1Cn1cc(/C=N/Nc2ccc([N+](=O)[O-])cn2)c2ccccc21`: the AC40 was 16.1 µM.

Tested on in another test: not listed separately
The description is as above. As to conditions: mTEFS fibroblasts autofluorescence, GFP-channel imaging, 3 days; at 19.5 µM (top of the series); cells pretreated with 5-aza-dC.
As to `O=C(Nc1cccc(S(=O)(=O)NC2=NCCC2)c1)C1CC(=O)N(c2ccc3c(c2)OCCO3)C1` (stereo unspecified), the % fluorescent cells increase was -0.007% (inactive).

Take `COc1cccc(NC(=O)N(C)C[C@@H]2Oc3cc(Br)ccc3S(=O)(=O)N([C@@H](C)CO)C[C@H]2C)c1`: the % fluorescent cells increase is 0.017% (inactive).

Take `Nc1[nH]c(=O)nc(Nc2ccccc2)c1N=O`: the % fluorescent cells increase is 0% (inactive).

For `O=C(NC1=C(NC2CCS(=O)(=O)C2)C(=O)c2ccccc2C1=O)c1ccccc1` (stereo unspecified), the % fluorescent cells increase is 0% (inactive).

For `Cc1cc(/C=C2\SC(=S)N(Cc3ccco3)C2=O)c(C)n1-c1ccccc1`, the % fluorescent cells increase is 0.981% (inactive).

For the compound `COc1ccccc1-c1cc(C(=O)N2CCCc3ccccc32)no1`, the % fluorescent cells increase was 0.006% (inactive).

With `CCOC(=O)Cc1c(C)[nH]n(-c2ccccc2)c1=O`, the % fluorescent cells increase was 0.015% (inactive).

As to `Cc1cccc(NCc2ccc(O)c3ncccc23)c1C`, the % fluorescent cells increase was 0.074% (inactive).

On to `F[B-](F)(F)c1cnc2ccccc2c1`, for which the % fluorescent cells increase is 0.137% (inactive).

Take `CS(=O)(=O)c1ccc(S(=O)CC(=O)OCc2ccccc2)c([N+](=O)[O-])c1` (stereo unspecified): the % fluorescent cells increase is 0% (inactive).

Take `CC1CN(Cc2c(O)ccc3c2oc(=O)c2ccccc23)CC(C)O1` (stereo unspecified): the % fluorescent cells increase was 0.279% (inactive).

Consider `O=C(NNC(=O)c1ccccc1Cl)c1ccccc1Cl`, for which the % fluorescent cells increase is 0.057% (inactive).

For the compound `CCCCOc1nc2ccccc2nc1NS(=O)(=O)c1ccc(F)cc1`, the % fluorescent cells increase was 0% (inactive).

With `C[C@H]1CN([C@@H](C)CO)C(=O)c2cc(NC(=O)CCCCCC(=O)Nc3ccccc3N)ccc2O[C@H]1CN(C)C(=O)Nc1ccccc1`, the % fluorescent cells increase was 0.017% (inactive).

In the case of `COc1ccc(OCCN2CCC(C(=O)NC(c3ccc(C)cc3)c3ccccn3)CC2)cc1` (stereo unspecified), the % fluorescent cells increase was 0.021% (inactive).

Turning to `C[C@H](CO)N1C[C@H](C)[C@H](CN(C)Cc2ccccc2)Oc2ccc(NS(C)(=O)=O)cc2C1=O`, the % fluorescent cells increase is 0.123% (inactive).

`COC(=O)c1cnn(-c2ccccc2)c1N`: the % fluorescent cells increase was 0.008% (inactive).

Consider `NC(=S)Nc1ccc(Cl)cc1Cl`, for which the % fluorescent cells increase is 0.009% (inactive).

On to `COc1ccccc1CN1CC[C@H]2[C@H](CO)Nc3ccc(C#Cc4ccccc4)cc3[C@H]21`, for which the % fluorescent cells increase was 0% (inactive).

Turning to `C[C@@H]1CN([C@@H](C)CO)S(=O)(=O)c2ccc(C#CC3CC3)cc2O[C@H]1CN(C)Cc1ccc(F)cc1`, the % fluorescent cells increase is 0.107% (inactive).

As for `Cc1cc(N)ncc1[N+](=O)[O-]`, the % fluorescent cells increase was 0.218% (inactive).

Turning to `Cc1ccc(S(=O)(=O)N2CCOCC2)cc1C(=O)OCC(=O)NC1CCS(=O)(=O)C1` (stereo unspecified), the % fluorescent cells increase was 0.086% (inactive).

For the compound `CCCCNc1nc2c(-c3ccccc3)nnn2c2ccccc12`, the % fluorescent cells increase is 0.006% (inactive).

Turning to `COc1cc(/C=C/c2ccc3cccc(O)c3n2)ccc1O`, the % fluorescent cells increase was 0% (inactive).

Take `CCc1ccc(C(=O)NNc2ccc(S(N)(=O)=O)cc2)cc1`: the % fluorescent cells increase was -0.004% (inactive).

As for `NC(=NC(=O)c1cccc(C(F)(F)F)c1)c1ccc(C(F)(F)F)cn1`, the % fluorescent cells increase is 0% (inactive).

Regarding `COc1ccc(C2=NOC3(CC(=O)N(c4ccc(F)cc4)C3=O)C2)cc1` (stereo unspecified), the % fluorescent cells increase is 0.016% (inactive).

As for `O=S(=O)(Nc1cc(Sc2cccc3cccnc23)c(O)c2ccccc12)c1ccccc1`, the % fluorescent cells increase was -0.003% (inactive).

In the case of `C/C=C/Cn1c(SCCCc2ccccc2)nc2c1c(=O)[nH]c(=O)n2C`, the % fluorescent cells increase is -0.004% (inactive).

As for `COc1ccc(CNC(=O)c2ccc(-c3cnn(C)c3)c3ccoc23)cc1OC`, the % fluorescent cells increase was 1.28% (inactive).

As to `Nc1c(C(=O)O)cnn1-c1ccc([N+](=O)[O-])cc1`, the % fluorescent cells increase was 0.002% (inactive).

Consider `CC(C)CC#Cc1ccc([C@@H]2[C@@H](CO)N3C(=O)CN(C(=O)c4cccc(F)c4)C[C@H]23)cc1`, for which the % fluorescent cells increase was -0.108% (inactive).

For the compound `CCc1ccc(NS(=O)(=O)c2ccc3[nH]cc(C(=O)N4CCc5ccccc54)c(=O)c3c2)cc1`, the % fluorescent cells increase is 0% (inactive).

Consider `O=C1c2ccc3c4c(ccc(c24)C(=O)N1c1cccc(O)c1)C(=O)N(c1cccc(O)c1)C3=O`, for which the % fluorescent cells increase is -0.003% (inactive).

Consider `O=C(COC(=O)c1cc(=O)[nH]c(=O)[nH]1)Nc1cccc(S(=O)(=O)N2CCCCC2)c1`, for which the % fluorescent cells increase is 0% (inactive).

With `CC(C)CCN1CCN(Cc2cc3ccccc3[nH]2)CC1CCO` (stereo unspecified), the % fluorescent cells increase is 0% (inactive).

`COc1ccc(CCn2c(C)cc(C(=O)CN3C(=O)C(=O)N(Cc4ccco4)C3=O)c2C)cc1`: the % fluorescent cells increase was 0% (inactive).

As for `O=C(O)c1ccccc1NS(=O)(=O)c1ccc(N/N=C/c2cccc(O)c2O)c([N+](=O)[O-])c1`, the % fluorescent cells increase was 12.8% (inactive).

Take `O=C(COC(=O)c1ccc(NS(=O)(=O)c2cccs2)cc1O)NC1CCCCC1`: the % fluorescent cells increase is 0.547% (inactive).

For the compound `C=CCn1c(=S)[nH]c2scc(-c3ccco3)c2c1=O`, the % fluorescent cells increase was 0% (inactive).

Take `COc1ccc(C(=O)N/N=C/c2cc(Br)ccc2O)cc1OC`: the % fluorescent cells increase was 4.96% (inactive).

Turning to `O=C(C[C@@H]1C[C@@H]2c3cc(NC(=O)C4CCC4)ccc3O[C@@H]2[C@@H](CO)O1)NCc1ccc(Cl)cc1`, the % fluorescent cells increase was 0.34% (inactive).

As to `Nc1ccccc1Nc1cc(-c2ccccc2)[nH]n1`, the % fluorescent cells increase was 2.52% (inactive).

Take `Cc1ccc(-c2csc(NC(=O)c3cccc([N+](=O)[O-])c3C(=O)O)n2)cc1`: the % fluorescent cells increase was 0% (inactive).
